Experimental findings from ChEMBL document CHEMBL1909046, “DrugMatrix in vitro pharmacology data” are described below.

In one assay the target is T1, Cytochrome P450 1A2 (Homo sapiens, UniProt P05177).
T1 sequence (P05177 whole entry): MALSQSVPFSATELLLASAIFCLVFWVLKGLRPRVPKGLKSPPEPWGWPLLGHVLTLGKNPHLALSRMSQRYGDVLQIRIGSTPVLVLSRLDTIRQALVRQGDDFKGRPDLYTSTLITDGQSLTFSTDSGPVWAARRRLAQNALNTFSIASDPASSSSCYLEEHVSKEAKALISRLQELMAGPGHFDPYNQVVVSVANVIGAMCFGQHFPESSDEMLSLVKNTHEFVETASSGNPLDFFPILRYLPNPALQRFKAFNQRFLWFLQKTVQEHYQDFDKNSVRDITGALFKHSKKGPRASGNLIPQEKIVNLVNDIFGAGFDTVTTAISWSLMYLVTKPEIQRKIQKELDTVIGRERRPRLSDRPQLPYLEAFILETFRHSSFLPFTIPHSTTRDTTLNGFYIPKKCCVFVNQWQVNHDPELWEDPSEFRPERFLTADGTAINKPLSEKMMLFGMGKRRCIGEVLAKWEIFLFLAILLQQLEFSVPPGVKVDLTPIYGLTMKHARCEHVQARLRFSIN

In another assay the target is T2, Estrogen receptor (Homo sapiens, UniProt P03372).
T2 sequence (P03372 whole entry): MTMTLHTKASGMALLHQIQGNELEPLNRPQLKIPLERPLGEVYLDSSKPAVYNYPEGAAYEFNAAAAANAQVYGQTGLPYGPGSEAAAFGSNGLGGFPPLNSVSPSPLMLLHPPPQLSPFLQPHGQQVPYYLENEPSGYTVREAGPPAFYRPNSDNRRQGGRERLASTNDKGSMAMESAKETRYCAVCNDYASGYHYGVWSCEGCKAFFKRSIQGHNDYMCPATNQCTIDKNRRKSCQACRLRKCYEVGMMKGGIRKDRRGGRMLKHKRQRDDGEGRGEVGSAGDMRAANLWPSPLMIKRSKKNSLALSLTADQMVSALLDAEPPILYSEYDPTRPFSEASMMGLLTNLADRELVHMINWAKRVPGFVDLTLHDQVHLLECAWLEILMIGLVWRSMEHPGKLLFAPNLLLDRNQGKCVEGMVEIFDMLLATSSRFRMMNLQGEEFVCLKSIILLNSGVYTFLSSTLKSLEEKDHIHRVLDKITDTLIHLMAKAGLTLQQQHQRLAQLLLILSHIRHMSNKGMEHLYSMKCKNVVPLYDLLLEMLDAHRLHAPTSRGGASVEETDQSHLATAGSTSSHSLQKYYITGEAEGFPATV
Description: biochemical.

The target in the next assay is Cytochrome P450 2C9 (Homo sapiens, UniProt P11712).
Cytochrome P450 2C9, sequence (P11712 whole entry): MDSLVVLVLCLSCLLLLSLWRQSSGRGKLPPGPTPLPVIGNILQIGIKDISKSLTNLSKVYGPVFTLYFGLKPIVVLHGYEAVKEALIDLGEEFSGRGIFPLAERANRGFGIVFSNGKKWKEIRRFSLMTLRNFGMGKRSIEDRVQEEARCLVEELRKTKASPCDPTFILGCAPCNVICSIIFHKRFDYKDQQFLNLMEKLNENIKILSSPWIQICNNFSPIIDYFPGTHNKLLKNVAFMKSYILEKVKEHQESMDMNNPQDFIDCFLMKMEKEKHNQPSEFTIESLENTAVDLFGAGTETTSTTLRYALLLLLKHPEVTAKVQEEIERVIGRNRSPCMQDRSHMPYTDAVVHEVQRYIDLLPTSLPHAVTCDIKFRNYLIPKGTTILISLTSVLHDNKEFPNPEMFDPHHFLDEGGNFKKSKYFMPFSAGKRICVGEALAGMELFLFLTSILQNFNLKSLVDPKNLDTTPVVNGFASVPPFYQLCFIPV
In another assay the target is T3, Glucocorticoid receptor (Homo sapiens, UniProt P04150).
T3 sequence (P04150 whole entry): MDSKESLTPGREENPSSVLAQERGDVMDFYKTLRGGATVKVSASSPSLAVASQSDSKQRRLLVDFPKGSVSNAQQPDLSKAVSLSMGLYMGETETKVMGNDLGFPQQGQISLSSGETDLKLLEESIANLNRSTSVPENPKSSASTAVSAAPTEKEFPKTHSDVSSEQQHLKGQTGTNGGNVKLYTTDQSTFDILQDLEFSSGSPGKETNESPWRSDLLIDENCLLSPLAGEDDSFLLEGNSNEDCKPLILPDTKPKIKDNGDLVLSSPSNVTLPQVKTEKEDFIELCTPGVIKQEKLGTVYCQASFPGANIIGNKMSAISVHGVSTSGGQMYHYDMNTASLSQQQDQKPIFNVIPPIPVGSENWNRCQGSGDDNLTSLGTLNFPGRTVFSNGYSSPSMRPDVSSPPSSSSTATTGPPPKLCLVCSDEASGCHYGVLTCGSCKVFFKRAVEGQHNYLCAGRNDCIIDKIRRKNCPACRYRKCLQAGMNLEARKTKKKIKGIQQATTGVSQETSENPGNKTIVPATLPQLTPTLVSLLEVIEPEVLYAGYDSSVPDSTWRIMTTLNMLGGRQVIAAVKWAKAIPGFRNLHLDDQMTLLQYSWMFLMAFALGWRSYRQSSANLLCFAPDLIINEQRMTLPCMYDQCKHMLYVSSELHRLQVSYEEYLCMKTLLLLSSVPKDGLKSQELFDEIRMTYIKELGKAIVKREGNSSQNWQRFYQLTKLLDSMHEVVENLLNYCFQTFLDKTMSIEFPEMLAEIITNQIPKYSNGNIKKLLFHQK
Description: biochemical.

For assay [1], the target named is Voltage-gated inwardly rectifying potassium channel KCNH2 (Homo sapiens, UniProt Q12809).
Voltage-gated inwardly rectifying potassium channel KCNH2, sequence (Q12809 whole entry): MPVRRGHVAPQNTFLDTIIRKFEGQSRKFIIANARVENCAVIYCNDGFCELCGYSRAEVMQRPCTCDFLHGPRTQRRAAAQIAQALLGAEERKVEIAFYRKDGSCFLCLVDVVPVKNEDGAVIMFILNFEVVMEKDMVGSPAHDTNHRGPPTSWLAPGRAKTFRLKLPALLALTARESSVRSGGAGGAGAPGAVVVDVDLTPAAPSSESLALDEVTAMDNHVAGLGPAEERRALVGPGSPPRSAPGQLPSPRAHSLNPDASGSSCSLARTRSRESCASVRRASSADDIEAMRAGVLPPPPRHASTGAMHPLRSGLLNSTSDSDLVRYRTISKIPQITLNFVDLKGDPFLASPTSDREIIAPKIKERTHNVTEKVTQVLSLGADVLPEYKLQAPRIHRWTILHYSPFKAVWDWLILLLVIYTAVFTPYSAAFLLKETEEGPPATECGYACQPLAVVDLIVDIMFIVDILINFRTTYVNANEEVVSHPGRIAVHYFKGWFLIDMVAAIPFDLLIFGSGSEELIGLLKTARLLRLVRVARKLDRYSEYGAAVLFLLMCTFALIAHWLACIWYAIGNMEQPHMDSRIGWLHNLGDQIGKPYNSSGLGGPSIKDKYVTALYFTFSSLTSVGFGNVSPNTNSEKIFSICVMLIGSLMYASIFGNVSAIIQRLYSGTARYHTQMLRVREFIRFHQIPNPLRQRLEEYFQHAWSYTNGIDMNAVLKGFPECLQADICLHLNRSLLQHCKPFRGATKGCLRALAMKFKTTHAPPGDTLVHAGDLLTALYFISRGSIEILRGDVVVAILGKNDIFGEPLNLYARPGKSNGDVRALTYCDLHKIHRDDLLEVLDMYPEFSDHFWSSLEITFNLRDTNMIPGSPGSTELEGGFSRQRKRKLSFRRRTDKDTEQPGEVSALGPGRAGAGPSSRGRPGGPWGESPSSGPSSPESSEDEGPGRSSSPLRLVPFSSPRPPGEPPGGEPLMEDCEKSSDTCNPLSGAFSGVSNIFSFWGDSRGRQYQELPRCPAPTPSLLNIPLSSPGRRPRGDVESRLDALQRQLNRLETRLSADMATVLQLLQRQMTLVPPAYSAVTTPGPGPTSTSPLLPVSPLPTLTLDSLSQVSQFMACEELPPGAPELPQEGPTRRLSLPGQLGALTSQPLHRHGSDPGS

In general, IC50 refers to the midpoint of a concentration-inhibition curve. A lower IC50 goes with greater potency. `c1ccc2c(c1)cc1ccc3cccc4ccc2c1c34` came in with an IC50 against Cytochrome P450 1A2 of 40 nM. Usually Ki stands for a dissociation constant, usually derived from enzyme kinetics or from competition with a known ligand. On to `CCCCCCCCCc1ccc(O)cc1` [4-NONYLPHENOL], for which, at Estrogen receptor, half-maximal inhibition (IC50) was put at 377 nM and the affinity, expressed as Ki, was 108 nM. `Cc1[nH]cnc1CN1CCc2c(c3ccccc3n2C)C1=O` [ALOSETRON] showed an IC50 at Cytochrome P450 1A2 of 605 nM. In turn, `O=C1CCc2cc(OCCCCc3nnnn3C3CCCCC3)ccc2N1` [CILOSTAZOL] returned an IC50 against Cytochrome P450 2C9 of 10000 nM. On Glucocorticoid receptor, `CC(=O)OCC(=O)[C@@]1(OC(C)=O)[C@@H](C)C[C@H]2[C@@H]3C[C@H](F)C4=CC(=O)C=C[C@]4(C)[C@@]3(F)[C@@H](O)C[C@@]21C` [DIFLORASONE DIACETATE] showed an IC50 of 6.4 nM and a Ki of 2.91 nM. In assay [1], `Cc1c(-c2ccccc2)oc2c(C(=O)OCCN3CCCCC3)cccc2c1=O` [FLAVOXATE] displayed an IC50 of 24100 nM and a Ki of 19800 nM.

At Glucocorticoid receptor, `CC(=O)[C@@]1(O)CC[C@H]2[C@@H]3C[C@H](C)C4=CC(=O)C=C[C@]4(C)[C@@]3(F)[C@@H](O)C[C@@]21C` [FLUOROMETHOLONE] returned an IC50 of 3.47 nM and an inhibition constant Ki of 1.58 nM. In assay [1], `COc1ccc(CN(CCN(C)C)c2ccccn2)cc1` [PYRILAMINE] registered a half-maximal inhibitory concentration (IC50) of 12600 nM and an inhibition constant Ki of 10300 nM.
